As a reminder, the IC50 is the concentration that gives 50% inhibition.

In this test the target is T1, purified STEP46 enzyme (Homo sapiens, UniProt P54829).
T1 sequence (P54829 1-565): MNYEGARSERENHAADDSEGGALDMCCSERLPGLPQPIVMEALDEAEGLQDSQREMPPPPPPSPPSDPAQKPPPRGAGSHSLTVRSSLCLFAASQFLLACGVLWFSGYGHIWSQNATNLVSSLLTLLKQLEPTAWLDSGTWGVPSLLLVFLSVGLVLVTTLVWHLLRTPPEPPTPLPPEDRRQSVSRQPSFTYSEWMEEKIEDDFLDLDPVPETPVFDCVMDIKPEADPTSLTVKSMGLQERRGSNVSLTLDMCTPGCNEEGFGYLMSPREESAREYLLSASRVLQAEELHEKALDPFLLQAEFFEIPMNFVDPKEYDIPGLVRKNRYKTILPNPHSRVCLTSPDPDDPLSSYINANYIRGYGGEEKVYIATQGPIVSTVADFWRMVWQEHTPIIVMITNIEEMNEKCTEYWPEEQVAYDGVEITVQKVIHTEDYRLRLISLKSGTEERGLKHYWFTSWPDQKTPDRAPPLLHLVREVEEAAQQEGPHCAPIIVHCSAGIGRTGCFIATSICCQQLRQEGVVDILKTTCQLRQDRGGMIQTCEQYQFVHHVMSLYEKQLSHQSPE
Kind of test: STEP46 biochemical assay (DiFMUP fluorescence phosphatase assay). The note with it: DiFMUP 10 μM, read-out: STEP IC50. As for the experimental part:
STEP46 Biochemical Assays
Serial dilutions of compounds were performed in 100% DMSO and 1 uL of compounds were dispensed into 384-well black polystyrene plates (Corning, NY). Compounds were incubated with 24 uL of buffer containing 50 mM Hepes, 1 mM DTT, 0.02% Brij35, 1 ng/well purified STEP46 enzyme for 30 min at room temperature. The reaction was initiated by addition of 25 uL of DiFMUP (6, 8-difluoro-4-methylumbelliferyl phosphate) (InVitrogen, CA) with a final concentration of 10 μM and incubated at 27° C. for 90 min. Final DMSO concentration is 2%. Plates were read with florescence intensity at excitation/emission of 360/460 nm using a PheraStar plate reader (BMG Labtech, NC).
Data were expressed as percentage (%) inhibition of enzyme activity. 0% inhibition is defined as the RFUs (relative fluorescence units) in the absence of compounds and 100% inhibition is defined as RFUs in the absence of STEP46 enzyme. IC50 values of compounds with inhibitory activity against STEP46 were determined by GraphPad Prism (version 4.03) using four parameter logistic equation. Some compounds act as activators. For compounds showing STEP46 enzymatic activation, data are represented as percentage of inhibition but with negative values at three representative concentrations (25, 50 and 100 uM).
On to `CNc1nc(-c2cccnc2)nc2cc(C)c(-c3ccc(F)cc3)cc12` [Compound 1414], for which the IC50 was 1000 to 10000 nM.

Take `CCOc1ccc2nc(-c3cccnc3)nc(Nc3ccc4c(c3)NC(=O)CC4)c2c1` [Compound 337]: the IC50 is less than 1000 nM. On to `NC(=O)c1ccc(-c2ccc3nc(-c4cccnc4)nc(Nc4ccc(F)c(Cl)c4)c3c2)cc1` [Compound 656], for which the IC50 is less than 1000 nM.

With `COc1cncc(-c2ccc3nc(-c4cccnc4)nc(Nc4ccc5[nH]c(=O)sc5c4)c3c2)c1` [Compound 329], the IC50 was less than 1000 nM.

For the compound `COc1ccc(Cl)c(Nc2nc(-c3cccnc3)nc3ccc(OC)cc23)c1` [Compound 932], the IC50 lay within 1000 to 10000 nM. Under `Fc1ccc(Nc2nc(-c3cccnc3)nc3ccc(-c4cccc(Cl)c4)cc23)cc1Cl` [Compound 629] stands 1000 to 10000 nM; under `CCOc1ccc2nc(-c3cccnc3)nc(Nc3nc(-c4cccc(F)c4F)cs3)c2c1` [Compound 470], 1000 to 10000 nM.

For `Fc1ccc(Nc2nc(-c3cccnc3)nc3ccc(-c4ccncc4)cc23)cc1Cl` [Compound 651], the IC50 was less than 1000 nM. Consider `Cc1cccc(CNc2nc(-c3cccnc3)nc3cc(-c4cc(F)ccc4F)ccc23)n1` [Compound 1430], for which the IC50 fell in the range of 1000 to 10000 nM. For `CC(=O)c1ccc(-c2ccc3nc(-c4cccnc4)nc(N)c3c2)cc1` [Compound 1327] the value was more than 10000 nM; for `COc1ccc2nc(-c3cccnc3)nc(Nc3nc(-c4ccc(F)cc4F)cs3)c2c1` [Compound 446], 1000 to 10000 nM.

For the compound `CNc1nc(-c2cccnc2)nc2cc(C)c(-c3ccc(OC)cc3)cc12` [Compound 1420], the half-inhibitory concentration (IC50) fell in the range of 1000 to 10000 nM. For `CN(C)c1ccc2nc(-c3ccnnc3)nc(Nc3cccc(OC(F)F)c3)c2c1` [Compound 1153] the value was 1000 to 10000 nM; for `CNc1nc(-c2cccnc2)nc2cc(-c3cc(F)cc(F)c3)ccc12` [Compound 1374], 1000 to 10000 nM. Consider `CNc1nc(-c2cccnc2)nc2cc(-c3ccc(F)cc3F)ccc12` [Compound 1372], for which the IC50 fell in the range of 1000 to 10000 nM. Turning to `Fc1ccc(Nc2nc(-c3cccnc3)nc3ccc(-c4ccoc4)cc23)cc1Cl` [Compound 647], the IC50 lay in the range of 1000 to 10000 nM.

`COc1ccc2nc(-c3cccnc3)nc(Nc3ccc(-c4ccc(Cl)cc4)cc3)c2c1` [Compound 424]: the IC50 lay within 1000 to 10000 nM. For `CN(C)c1cccc(-c2ccc3c(Nc4ccc(F)c(Cl)c4)nc(-c4cccnc4)nc3c2)c1` [Compound 693] the value was less than 1000 nM; for `CNc1nc(-c2cccnc2)nc2cc(-c3cc(F)ccc3F)c(C)cc12` [Compound 1406], 1000 to 10000 nM. Under `Fc1ccc(-c2ccc3c(Nc4cccc(OC(F)(F)F)c4)nc(-c4cccnc4)nc3c2)cc1` [Compound 708] stands 1000 to 10000 nM; under `COc1ccc2nc(-c3cccnc3)nc(Nc3cccc4c3OC(F)(F)O4)c2c1` [Compound 339], 1000 to 10000 nM; under `COc1ccccc1-c1ccc2nc(-c3cccnc3)nc(Nc3ccc(F)c(Cl)c3)c2c1` [Compound 637], 1000 to 10000 nM.

In the case of `COc1ccc2nc(-c3cnccn3)nc(Nc3ccc(F)c(Cl)c3)c2c1` [Compound 1191], the IC50 is 1000 to 10000 nM. For `COc1ccc2nc(-c3cccnc3)nc(Nc3ccc4c(c3)OC(F)(F)C(F)(F)O4)c2c1` [Compound 322] the value was more than 10000 nM. Under `COc1cccc(-c2ccc3c(Nc4ccc(F)c(Cl)c4)nc(-c4cccnc4)nc3c2)c1` [Compound 681] stands 1000 to 10000 nM; under `COc1ccc2nc(-c3cccnc3)nc(Nc3cccc(-c4ccccc4)c3)c2c1` [Compound 426], more than 10000 nM; under `COc1ccc2c(Nc3ccc(F)c(Cl)c3)nc(-c3ccnnc3)nc2c1` [Compound 1155], 1000 to 10000 nM. For `Fc1ccc(Nc2nc(-c3cccnc3)nc3ccc(-c4cccs4)cc23)cc1Cl` [Compound 649] the value was 1000 to 10000 nM; for `CNc1nc(-c2cccnc2)nc2ccc(-c3cccc4sccc34)cc12` [Compound 1340], 1000 to 10000 nM.

Regarding `CN(C)c1nc(-c2cccnc2)nc2ccc(-c3ccccc3[N+](=O)[O-])cc12` [Compound 1334], the IC50 was more than 10000 nM. For `NC(=O)c1ccccc1Nc1nc(-c2cccnc2)nc2cc(Br)ccc12` [Compound 699] the value was less than 1000 nM. For `CCOc1ccc2nc(-c3cccnc3)nc(Nc3ccc4c(c3)NC(=O)CO4)c2c1` [Compound 336] the value was less than 1000 nM. Under `Fc1ccc(Nc2nc(-c3cccnc3)nc3ccc(-c4cccc(OC(F)(F)F)c4)cc23)cc1Cl` [Compound 658] stands 1000 to 10000 nM; under `Cc1cccc(-c2ccc3c(Nc4ccc(F)c(Cl)c4)nc(-c4cccnc4)nc3c2)c1` [Compound 696], less than 1000 nM; under `CNc1nc(-c2cccnc2)nc2ccc(-c3cc(OC)ccc3OC)cc12` [Compound 1356], 1000 to 10000 nM. As for `CNc1nc(-c2cccnc2)nc2cc(-c3ccccc3F)ccc12` [Compound 1358], the IC50 was 1000 to 10000 nM. Under `CN(C)c1nc(-c2cccnc2)nc2ccc(-c3ccccc3Cl)cc12` [Compound 1332] stands 1000 to 10000 nM. Under `CNc1nc(-c2cccnc2)nc2c(C)cc(-c3cccc(C#N)c3)cc12` [Compound 1281] stands less than 1000 nM; under `COc1ccc2nc(-c3cccnc3)nc(Nc3cccc4cc[nH]c34)c2c1` [Compound 300], more than 10000 nM. Under `COc1ccc2nc(-c3cccnc3)nc(Nc3cccc(Br)c3)c2c1` [Compound 425] stands 1000 to 10000 nM. As for `CNc1nc(-c2cccnc2)nc2c(C)c(-c3cccc(OC)c3)ccc12` [Compound 1456], the IC50 was 1000 to 10000 nM. `CNc1nc(-c2cccnc2)nc2c(C)c(-c3ccc(F)cc3)ccc12` [Compound 1447]: the IC50 was more than 10000 nM. `FC(F)Oc1cccc(Nc2nc(-c3ccncn3)nc3ccccc23)c1` [Compound 1208]: the IC50 is more than 10000 nM.

Regarding `Cc1ccc(-c2ccc3c(Nc4ccc(F)c(Cl)c4)nc(-c4cccnc4)nc3c2)cc1` [Compound 695], the IC50 is less than 1000 nM. Under `COc1ccc2nc(-c3cnccn3)nc(Nc3cc(Cl)cc(Cl)c3)c2c1` [Compound 1194] stands less than 1000 nM; under `COc1ccc2nc(-c3cccnc3)nc(Nc3ncc(-c4ccccc4)s3)c2c1` [Compound 418], 1000 to 10000 nM; under `CNc1nc(-c2cccnc2)nc2ccc(-c3ccc(F)cc3F)cc12` [Compound 1611], 1000 to 10000 nM. For `N#Cc1cccc(Nc2nc(-c3cnccn3)nc3cc(Cl)ccc23)c1` [Compound 1144] the value was 1000 to 10000 nM. Under `COc1ccc2nc(-c3cncnc3)nc(Nc3ccccc3C(N)=O)c2c1` [Compound 1172] stands 1000 to 10000 nM; under `Fc1ccc(-c2ccc3c(Nc4ccc(F)c(Cl)c4)nc(-c4cccnc4)nc3c2)c(F)c1` [Compound 698], less than 1000 nM; under `NC(=O)c1ccccc1-c1ccc2c(Nc3ccc(F)c(Cl)c3)nc(-c3cccnc3)nc2c1` [Compound 683], 1000 to 10000 nM.

Consider `NC(=O)c1ccccc1Nc1nc(-c2cccnc2)nc2cc(-c3cc(F)ccc3F)ccc12` [Compound 706], for which the 50% inhibitory concentration (IC50) was less than 1000 nM. Under `Fc1ccc(Nc2nc(-c3cccnc3)nc3ccc(-c4ccc(Cl)cc4)cc23)cc1Cl` [Compound 630] stands 1000 to 10000 nM; under `CNc1nc(-c2cccnc2)nc2cc(C)c(-c3ccc(F)cc3F)cc12` [Compound 1415], more than 10000 nM; under `CNc1nc(-c2cccnc2)nc2cc(-c3cccc(Cl)c3)ccc12` [Compound 1353], 1000 to 10000 nM.

As to `Fc1cccc(-c2ccc3c(Nc4ccc(F)c(Cl)c4)nc(-c4cccnc4)nc3c2)c1` [Compound 688], the IC50 was less than 1000 nM. Under `COc1ccc2nc(-c3cccnc3)nc(Nc3nnc(-c4ccc(Cl)cc4)s3)c2c1` [Compound 412] stands less than 1000 nM. In the case of `COc1ccc2nc(-c3cccnc3)nc(Nc3nc(-c4ccccc4F)cs3)c2c1` [Compound 439], the IC50 is less than 1000 nM. With `Fc1ccc(Nc2nc(-c3cnccn3)nc3cc(Cl)ccc23)cc1Cl` [Compound 1141], the IC50 is less than 1000 nM. Under `COc1ccc2nc(-c3ccnnc3)nc(Nc3ccc(F)c(F)c3)c2c1` [Compound 1186] stands 1000 to 10000 nM; under `COc1ccc2nc(-c3cccnc3)nc(Nc3nc(-c4ccccc4)c(C)s3)c2c1` [Compound 456], less than 1000 nM. Under `COc1ccc2nc(-c3cccnc3)nc(Nc3cc(-c4ccc(Cl)cc4)nn3C)c2c1` [Compound 403] stands 1000 to 10000 nM; under `Fc1ccc(F)c(-c2ccc3c(Nc4ccc(F)c(Cl)c4)nc(-c4cccnc4)nc3c2)c1` [Compound 676], less than 1000 nM.

Source of the values: patent US9630947B2, “Therapeutic compounds and related methods of use” (OTSUKA PHARMACEUTICAL CO., LTD., priority 2009, dated 2017).
